ChEMBL document CHEMBL4364346, “Structure optimization of a new class of PPARγ antagonists” (Bioorg Med Chem, 2019)
pIC50: −log10 of the molar value. Values after ≈ are worked out from the molar mass of the structure shown.

Biological target: T1, Peroxisome proliferator-activated receptor gamma (Homo sapiens, UniProt P37231)
T1 sequence (P37231 whole entry): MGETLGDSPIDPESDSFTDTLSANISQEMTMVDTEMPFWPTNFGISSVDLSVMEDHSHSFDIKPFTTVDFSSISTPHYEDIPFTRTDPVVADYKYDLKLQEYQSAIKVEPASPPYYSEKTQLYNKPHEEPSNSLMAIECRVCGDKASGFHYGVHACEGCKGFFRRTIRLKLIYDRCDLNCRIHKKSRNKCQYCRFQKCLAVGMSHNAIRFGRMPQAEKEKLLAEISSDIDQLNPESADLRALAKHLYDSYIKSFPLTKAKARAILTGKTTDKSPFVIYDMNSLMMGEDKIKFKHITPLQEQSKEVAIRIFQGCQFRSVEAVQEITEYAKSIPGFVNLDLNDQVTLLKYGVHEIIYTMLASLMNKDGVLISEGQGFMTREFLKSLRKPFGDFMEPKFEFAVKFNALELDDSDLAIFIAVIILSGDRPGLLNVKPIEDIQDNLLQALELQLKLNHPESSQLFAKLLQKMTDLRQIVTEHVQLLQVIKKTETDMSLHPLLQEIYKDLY
Assay: Antagonist actvity in pFA-GAL4-DBD fused PPARgamma LBD (unknown origin) transfected in HEK293T cells assessed as inhibition of rosiglitazone-induced PPARgamma transactivation incubated for 24 hrs by luciferase reporter gene assay
Type: cell-based
Details: not given; call rule not given here

SMILES	IC50
CCC/C(=C\c1cc(OC)ccc1OCc1ccc2nc(C(F)(F)F)cc(OC)c2c1)C(=O)O	Not Active
CCCC/C(=C\c1cc(OCc2cn(Cc3ccc(C(=O)O)cc3)nn2)ccc1OCc1ccc(C(F)(F)F)cc1)C(=O)O	Not Active
CCC/C(=C\c1cc(OCc2ccc3nc(C(F)(F)F)cc(OC)c3c2)ccc1OCC1CCNCC1)C(=O)O	Not Active

Now from value to compound:

IC50	SMILES
Not Active	CCCCC(Cc1cc(OCc2ccc3nc(C(F)(F)F)cc(OC)c3c2)ccc1OCc1ccc(C(F)(F)F)cc1)C(=O)O (configuration not stated)
Not Active	CCC/C(=C\c1cc(OCc2ccc(N(C)C)cc2)ccc1OCc1ccc(F)cc1)C(=O)O
Not Active	CCC/C(=C\c1cc(OCc2ccc3[nH]ccc3c2)ccc1OCc1ccc(F)cc1)C(=O)O
Not Active	COc1cc(C(F)(F)F)nc2ccc(COc3ccc(OCc4ccc(F)cc4)c(/C=C(\F)C(=O)O)c3)cc12

Same assay, conditions: read-out: IC50

SMILES	pIC50
CCC/C(=C\c1cc(OCc2ccc3[nH]c(=O)ccc3c2)ccc1OCc1ccc(F)cc1)C(=O)O	5.21
CCC/C(=C\c1cc(OCc2ccc3nc(C(F)(F)F)cc(OC)c3c2)ccc1OCCN1CCNCC1)C(=O)O	5.02
CCC/C(=C\c1cc(OCc2ccc3ncccc3c2)ccc1OCC1CCN(C)CC1)C(=O)O	4.82
COc1cc(C(F)(F)F)nc2ccc(COc3ccc(OCC4CCN(C)CC4)c(/C=C(\CCC4CC4)C(=O)O)c3)cc12	5.12
CCC/C(=C\c1cc(OCc2ccc3c(ccc[n+]3[O-])c2)ccc1OCc1ccc(F)cc1)C(=O)O	5.21
CCC/C(=C\c1cc(OCc2ccc3nc(C(F)(F)F)cc(OC)c3c2)ccc1OCc1ccccc1)C(=O)O	5.14
CCC/C(=C\c1cc(OCc2ccc3ccccc3c2)ccc1OCc1ccc(F)cc1)C(=O)O	4.80
CC/C(=C\c1cc(OCc2ccc3nc(C(F)(F)F)cc(OC)c3c2)ccc1OCc1ccc(F)cc1)C(=O)O	5.24
CCCC/C(=C\c1cc(OCc2ccc3nc(C(F)(F)F)cc(OC)c3c2)ccc1OCc1ccc(OC(F)F)cc1)C(=O)O	5.59
COc1cc(C(F)(F)F)nc2ccc(COc3ccc(OCc4ccc(F)cc4)c(/C=C(\C)C(=O)O)c3)cc12	5.03

Continued, values first:

pIC50	SMILES
4.88	CCC/C(=C\c1cc(OCc2ccc3ccccc3n2)ccc1OCc1ccc(F)cc1)C(=O)O
5.33	CCC/C(=C\c1cc(OCc2ccc3nc(C(F)(F)F)cc(OC)c3c2)ccc1OCc1ccncc1)C(=O)O
5.64	CCCC/C(=C\c1cc(OCc2ccc3nc(C(F)(F)F)cc(OC)c3c2)ccc1OCc1ccc(F)cc1)C(=O)O
5.41	CCC/C(=C\c1cc(OCc2ccc3nc(C(F)(F)F)cc(OC)c3c2)ccc1OCc1cccc(F)c1)C(=O)O
4.96	COc1cc(C(F)(F)F)nc2ccc(COc3ccc(OCc4ccc(F)cc4)c(/C=C/C(=O)O)c3)cc12
5.41	CCCn1c(C(=O)O)cc2c(OC)ccc(OCc3ccc4nc(C(F)(F)F)cc(OC)c4c3)c21
4.62	CCC/C(=C\c1cc(OCc2ccc3cccnc3c2)ccc1OCc1ccc(F)cc1)C(=O)O
5.30	CCC/C(=C\c1cc(OCc2ccc3ncccc3c2)ccc1OCc1ccc(F)cc1)C(=O)O
5.38	CCC/C(=C\c1cc(OCc2ccc3nc(C)ccc3c2)ccc1OCc1ccc(F)cc1)C(=O)O
5.46	CCC/C(=C\c1cc(OCc2ccc3nc(C(F)(F)F)cc(OC)c3c2)ccc1OCc1ccccc1F)C(=O)O
5.02	CCC/C(=C\c1cc(OCc2ccc3nc(C(F)(F)F)cc(OC)c3c2)ccc1NC(=O)c1ccc(F)cc1)C(=O)O
5.08	COc1cc(C(F)(F)F)nc2ccc(COc3ccc(OCc4ccc(F)cc4)c(/C=C(\CC4CC4)C(=O)O)c3)cc12
5.49	CCC/C(=C\c1cc(OCc2ccc3nc(C(F)(F)F)cc(OC)c3c2)ccc1OCc1ccc(F)cc1)C(=O)O
5.72	CCCC/C(=C\c1cc(OCc2ccc3nc(C(F)(F)F)cc(OC)c3c2)ccc1OCc1ccc(OC(F)(F)F)cc1)C(=O)O

Tested on: not listed separately
Assay: Solubility of compound in PBS buffer pH 7.4 with 1% DMSO measured after 1 and 24 hrs
Type: physicochemical
Details: PBS buffer with 1% DMSO

SMILES	solubility at 24 h
CCCC/C(=C\c1cc(OCc2ccc3nc(C(F)(F)F)cc(OC)c3c2)ccc1OCc1ccc(C(F)(F)F)cc1)C(=O)O	50 to 75 µM (≈ 31.7 to 47.5 µg/mL)
